This note sets out measurements from patent US5977169A, “Substituted tetronic acids useful for treating HIV and other retroviruses” (priority 1997, dated 1999).

The assay concerns the target T1, HIV-1 protease (Human immunodeficiency virus type 1 group M subtype B, UniProt P04585).
T1 construct: The protease (or proteinase) enzyme, consisting of only 99 amino acids
The experiment in a line: In vitro HIV protease inhibitory assay (fluorescently labeled substrate, avidin-polystyrene particles). To be noted: for inhibition at 3.3 µM: HIV-1 dose 3.3 μM; for inhibition at 10 µM: HIV-1 dose 10.0 μM; for inhibition at 30 µM: HIV-1 dose 30.0 μM. Format: biochemical. Put shortly: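 Biotinylated, FITC-labelled peptide substrate cleaved by HIV-1 protease for 1 h at room temperature in the dark, in 0.1 M sodium acetate pH 5.5 with 1.0 M NaCl and 0.05% NP-40. Product separated from substrate with avidin-polystyrene beads and filtration; fluorescence read as percent inhibition at stated compound concentrations.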

In general, inhibition refers to the relative decrease from the control value, in per cent.

Turning to `CCCC1(Cc2ccccc2)OC(=O)C(C(c2cccc(NS(=O)(=O)c3cn(C)cn3)c2)C(C)C)=C1O` (stereo not drawn) [IX-30], the inhibition at 3.3 µM was 97.1%, the inhibition at 10 µM was 96.6% and the inhibition at 30 µM was determined as 94.3%.
On the same counts, the results for `CCCC1(Cc2ccccc2)OC(=O)C(C(c2cccc(NS(=O)(=O)c3cccc4cccnc34)c2)C(C)C)=C1O` (stereo not drawn) [IX-31] are 107%, 114% and 109%.
For `CCCC1(CCC)OC(=O)C(C(c2cccc(NC(=O)OCc3ccccc3)c2)C2CC2)=C1O` (stereo not drawn) [IX-32, Carbamic acid, (3-(cyclopropyl(2,5-dihydro-4-hydroxy-2-oxo-5,5-dipropyl-3-furanyl)methyl)phenyl)-, phenylmethyl ester] the same measures were 100%, 106% and 111%.
Regarding `CCC1CCCCC12OC(=O)C(C(c1ccccc1)C1CC1)=C2O` (stereo not drawn) [IX-34, 1-Oxaspiro[4.5]dec-3-en-2-one, 3-(cyclopropylphenylmethyl)-4-hydroxy-6-ethyl-], the inhibition at 3.3 µM worked out at 97%, the inhibition at 10 µM stood at 98.1% and the inhibition at 30 µM was found to be 93.3%.
On the same counts, the results for `CCCC1(CCC)OC(=O)C(C(c2cccc(NS(=O)(=O)c3ccc(C#N)cn3)c2)C2CC2)=C1O` (stereo not drawn) [IX-35, 5-cyano-2-pyridinesulfonamide, N-(3-(cyclopropyl(2,5-dihydro-4-hydroxy-2-oxo-5,5-dipropyl-3-furanyl)methyl)phenyl)-] are 82.2%, 98.8% and 91.9%.
As to `CCCC1(CCC)OC(=O)C(C(c2cccc(NS(=O)(=O)c3ncc[nH]3)c2)C2CC2)=C1O` (stereo not drawn) [IX-36], the inhibition at 3.3 µM was 37%, the inhibition at 10 µM came to 79.6% and the inhibition at 30 µM worked out at 83%.
For `CCCC1(CCC)OC(=O)C(C(c2cccc(NS(=O)(=O)c3nccn3C)c2)C2CC2)=C1O` (stereo not drawn) [IX-37, 1-Methyl-1H-imidazole-2-sulfonamide, N-(3-(cyclopropyl(2,5-dihydro-4-hydroxy-2-oxo-5,5-dipropyl-3-furanyl)methyl)phenyl)-] the same measures were 99.2%, 100% and 96.7%.
For `CCCC1(CCC)OC(=O)C(C(c2cccc(NS(=O)(=O)c3ccc4ccccc4n3)c2)C2CC2)=C1O` (stereo not drawn) [IX-38] the same measures were 83%, 85% and 84.8%.
In the case of `CCCC1(CCC)OC(=O)C(C(Cc2ccccc2)c2cccc(NS(=O)(=O)c3ccc(C#N)cc3)c2)=C1O` (stereo not drawn) [IX-39, Benzenesulfonamide, 4-cyano-N-(3-(1-(4-hydroxy-2-oxo-5,5-dipropyl-2,5-dihydro-furan-3-yl)-2-phenyl-ethyl)-phenyl)-], the inhibition at 3.3 µM came to 76.8%, the inhibition at 10 µM was determined as 78.1% and the inhibition at 30 µM stood at 106%.
For `CCCC1(CCC)OC(=O)C(C(Cc2ccccc2)c2cccc(NS(=O)(=O)c3cn(C)cn3)c2)=C1O` (stereo not drawn) [IX-40] the same measures were 90.8%, 91.1% and 104%.
On the same counts, the results for `CCCC1(CCC)OC(=O)C(C(c2cccc(NS(=O)(=O)c3ccc(C#N)cc3)c2)C2CCCC2)=C1O` (stereo not drawn) [IX-41] are 97.4%, 96.9% and 101%.
For `CCCC1(CCC)OC(=O)C(C(c2cccc(NS(=O)(=O)c3cn(C)cn3)c2)C2CCCC2)=C1O` (stereo not drawn) [IX-42, 1H-Imidazole-4-sulfonamide, N-(3-(cyclopentyl(2,5-dihydro-4-hydroxy-2-oxo-5,5-dipropyl-3-furanyl)methyl)phenyl)-1-methyl-] the same measures were 94.5%, 96% and 96.8%.
For `N#Cc1ccc(S(=O)(=O)Nc2cccc(C(C3=C(O)C(Cc4ccccc4)(Cc4ccccc4)OC3=O)C3CC3)c2)cc1` (stereo not drawn) [IX-43], the inhibition at 3.3 µM stood at 98.6%, the inhibition at 10 µM worked out at 96.8% and the inhibition at 30 µM is 99.8%.
On the same counts, the results for `O=C1OC(Cc2ccccc2)(Cc2ccccc2)C(O)=C1C(c1cccc(NS(=O)(=O)c2ccc(F)cc2)c1)C1CC1` (stereo not drawn) [IX-44] are 90.3%, 92.3% and 80.3%.
On the same counts, the results for `Cn1cnc(S(=O)(=O)Nc2cccc(C(C3=C(O)C(Cc4ccccc4)(Cc4ccccc4)OC3=O)C3CC3)c2)c1` (stereo not drawn) [IX-45, 1H-Imidazole-4-sulfonamide, N-(3-(cyclopropyl-(5,5-dibenzyl-4-hydroxy-2-oxo-2,5-dihydro-3-furanyl)methyl)phenyl)-1-methyl-] are 91.9%, 94.3% and 80.9%.
For `O=C1OC(Cc2ccccc2)(Cc2ccccc2)C(O)=C1C(c1cccc(NS(=O)(=O)c2cccc3cccnc23)c1)C1CC1` (stereo not drawn) [IX-46, 8 Quinolinesulfonamide, N-(3-(cyclopropyl-(5,5-dibenzyl-4-hydroxy-2-oxo-2,5-dihydro-3-furanyl)methyl)phenyl)-] the same measures were 90.3%, 87% and 81.7%.
As for `CCCC1(CCC)OC(=O)C(C(c2ccccc2)c2cccc(NS(=O)(=O)c3ccc(C#N)cc3)c2)=C1O` (stereo not drawn) [IX-47, Benzenesulfonamide, 4-cyano-N-(3-((5,5-dipropyl-4-hydroxy-2-oxo-2,5-dihydro-3-furanyl)-phenyl-methyl)phenyl)-], the inhibition at 3.3 µM came out at 93.5%, the inhibition at 10 µM turned out to be 103% and the inhibition at 30 µM was determined as 88.3%.
For `CCCC1(CCC)OC(=O)C(C(c2ccccc2)c2cccc(NS(=O)(=O)c3cn(C)cn3)c2)=C1O` (stereo not drawn) [IX-48, 1H-Imidazole-4-sulfonamide, N-(3-((5,5-dipropyl-4-hydroxy-2-oxo-2,5-dihydro-3 furanyl)-phenyl-methyl)phenyl)-1-methyl-] the same measures were 94.5%, 94.7% and 89.1%.
As for `CCCC1(CCC)OC(=O)C(C(c2cccc(NS(=O)(=O)c3ccc(C#N)c(C4CCCC4)c3)c2)C2CCCC2)=C1O` (stereo not drawn) [IX-49, Benzenesulfonamide, 4-cyano 3-cyclpentyl-N-(3-(cyclopentyl(2,5-dihydro-4-hydroxy-2-oxo-5,5-dipropyl-3-furanyl)methyl)phenyl)-], the “HIV-1 Protease % Inhibition” value (test compound concentration 3.3 μM) came to 86.97%, the “HIV-1 Protease % Inhibition” value (test compound concentration 10.0 μM) turned out to be 94.94% and the “HIV-1 Protease % Inhibition” value (test compound concentration 30.0 μM) is recorded as 78.56%.
As to `CCCC1(CCC)OC(=O)C(C(c2cccc(NS(=O)(=O)c3nnnn3-c3ccccc3)c2)C2CC2)=C1O` (stereo not drawn) [IX-50], the inhibition at 3.3 µM is 108%, the inhibition at 10 µM worked out at 104% and the inhibition at 30 µM is 106%.
For `CCCC1(CCC)OC(=O)C(C(c2cccc(NS(=O)(=O)c3nc4ccccc4[nH]3)c2)C2CC2)=C1O` (stereo not drawn) [IX-51] the same measures were 101%, 102% and 106%.
As for `CCCC1(CCC)OC(=O)C(C(c2cccc(NS(=O)(=O)c3ccccn3)c2)C2CC2)=C1O` (stereo not drawn) [IX-52, 2-Pyridinesulfonamide, N-(3-(cyclopropyl-(4-hydroxy-2-oxo-5,5-dipropyl-2,5-dihydro-furan-3-yl)-methyl)-phenyl)-], the inhibition at 3.3 µM amounted to 110%, the inhibition at 10 µM worked out at 104% and the inhibition at 30 µM worked out at 99.9%.
On the same counts, the results for `Cn1cnc(S(=O)(=O)Nc2cccc(C(C3=C(O)C(Cc4ccccc4)(Cc4ccccc4)OC3=O)C(C)(C)C)c2)c1` (stereo not drawn) [IX-53] are 102%, 104% and 92%.
On the same counts, the results for `CC(C)(C)C(C1=C(O)C(Cc2ccccc2)(Cc2ccccc2)OC1=O)c1cccc(NS(=O)(=O)c2ccc(C#N)cc2)c1` (stereo not drawn) [IX-54] are 102%, 105% and 92.4%.
On to `CCCC1(CCC)OC(=O)C(C(c2cccc(NS(=O)(=O)c3ncccn3)c2)C2CC2)=C1O` (stereo not drawn) [IX-55, 2-Pyrimidinesulfonamide, N-(3-(cyclopropyl-(4-hydroxy-2-oxo-5,5-dipropyl-2,5 dihydro-furan-3-yl)-methyl)-phenyl)-], for which the inhibition at 3.3 µM stood at 93.8%, the inhibition at 10 µM came out at 93.8% and the inhibition at 30 µM worked out at 96.3%.
`N#Cc1ccc(S(=O)(=O)Nc2cccc(CC3=C(O)C(Cc4ccccc4)(Cc4ccccc4)OC3=O)c2)cc1` [IX-56]: the inhibition at 3.3 µM was 81.9%, the inhibition at 10 µM is 101% and the inhibition at 30 µM was determined as 92.5%.
Regarding `O=C1OC2(CCN(C(=O)OCC3c4ccccc4-c4ccccc43)CC2)C(O)=C1C(c1ccccc1)C1CC1` (stereo not drawn) [IX-58, 3-(Cyclopropyl-phenyl-methyl)-4-hydroxy-2-oxo-1-oxa-8-aza-spiro[4.5]dec-3-ene-8-carboxylic acid 9H-fluoren-9-ylmethyl ester], the inhibition at 3.3 µM is 79.8%, the inhibition at 10 µM was 86.8% and the inhibition at 30 µM is 87.4%.
Regarding `O=C1OC(=CCCc2ccccc2)C(O)=C1C(c1ccccc1)C1CC1` (stereo not drawn) [JX-1, 3-(Cyclopropyl-phenyl-methyl)-4-hydroxy-5-(3-phenyl-propyl-idene)-5H-furan-2-one], the inhibition at 3.3 µM worked out at 94.3%, the inhibition at 10 µM came to 103% and the inhibition at 30 µM was 103%.
As to `O=C1O/C(=C\c2ccccc2)C(O)=C1C(c1ccccc1)C1CC1` (stereo not drawn) [JX-2, 5-Benzylidene-3-(cyclopropyl-phenyl-methyl)-4-hydroxy-5H-furan-2-one], the inhibition at 3.3 µM came out at 56.9%, the inhibition at 10 µM turned out to be 87.7% and the inhibition at 30 µM is 103%.
